Measurements from patent publication EP3501490A1, “COMPOSITION FOR EXTERNAL USE THAT INCLUDES PTEROSTILBENE GLYCOSIDE” (Tomoike Industrial (H.K.) Limited, priority 2016, dated 2018).

Assays:
type IV collagen gene = assay: Type IV collagen mRNA expression in human skin cells by microarray method (Experimental Example 1); format: cell-based; details: 120 h, cultured for 5 days, hTERT-immortalized human skin cells, read-out: increase of the expression amount of type IV collagen gene compared to the negative control experiment
Procedure: Human skin cells were immortalized by introducing the hTERT gene and acclimated in a predetermined medium, Prigrow III (APB). Thereafter, the pterostilbene monoglucoside (50 µM) was added to the conditioned medium and cultured for 5 days in a 5% CO2 environment at 37°C.
RNA was collected from the cells after culturing, and changes in the amount of type IV collagen mRNA expression were analyzed by microarray method. […] A negative control experiment was also performed in which the pterostilbene monoglucoside was not added to the conditioned medium.

type IV collagen = assay: Type IV collagen protein expression in three-dimensional skin model by western blotting and densitometry (Experimental Examples 2 and 5); format: cell-based; details: Homo sapiens, 168 h; 25 µM and 100 µM final concentrations, 7 days; at most (maximum), concentration dependent; α-tubulin internal standard; read-out: increase of the amount of type IV collagen expression in the three-dimensional skin model compared to the control
Procedure: The three-dimensional skin model produced following the protocol of the kit was acclimated in the medium supplied with the kit.
The cells after culturing were collected, lysates thereof were subjected to western blotting using an anti-human collagen antibody (COL4A3BP; Abcam), and the amount of type IV collagen protein expression was analyzed. Further, western blotting using an anti-α-tubulin antibody as the internal standard was also performed, and the obtained image data was subjected to densitometry analysis.
These solutions were added to three-dimensional skin models and cultured for 7 days. The lysates of cells after culturing were subjected to western blotting using an anti-human collagen antibody, and the amounts of type IV collagen expression in the cells were analyzed. As a negative control (Ctrl), an experiment was performed in which a DMSO solution was added alone to the three-dimensional skin model.
Further, western blotting using an anti-α-tubulin antibody as the internal standard was also performed, and the obtained image data was subjected to densitometry analysis.

[1] = target: T1, Tyrosinase (Cat. No. T3824, SIGMA) (Agaricus bisporus, UniProt C7FF04); assay: In vitro tyrosinase inhibition experiment (Experimental Example 3); format: biochemical; details: fold more excellent than the aglycone pterostilbene, based on IC50 values of Fig. 3
T1 construct: purchased SIGMA T3824
T1 sequence (C7FF04 2-392 limits assumed): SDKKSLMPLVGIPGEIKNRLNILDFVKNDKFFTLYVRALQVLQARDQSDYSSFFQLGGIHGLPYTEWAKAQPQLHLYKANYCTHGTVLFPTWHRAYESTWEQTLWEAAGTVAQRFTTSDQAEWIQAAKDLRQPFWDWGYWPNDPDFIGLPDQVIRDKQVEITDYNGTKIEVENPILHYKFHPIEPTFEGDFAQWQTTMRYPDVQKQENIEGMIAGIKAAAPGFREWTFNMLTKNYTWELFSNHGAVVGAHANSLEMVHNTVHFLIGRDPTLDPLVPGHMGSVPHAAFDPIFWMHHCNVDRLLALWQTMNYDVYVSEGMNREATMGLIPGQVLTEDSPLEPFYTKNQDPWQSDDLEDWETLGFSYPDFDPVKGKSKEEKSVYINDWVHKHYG
Procedure: The tyrosinase inhibitory effect of pterostilbene monoglucoside was analyzed (IC50 values were measured) based on a generally known method (e.g., Expert Opin Ther Pat. 2016; 26(3): 347-62). Tyrosinase (Cat. No. T3824, SIGMA) was used as tyrosinase. Further, pterostilbene (produced by Tokyo Chemical Industry Co., Ltd.; A in the figure), the pterostilbene monoglucoside above (B in the figure), and arbutin as a positive control (C in the figure) were used.

COc1cc(/C=C/c2ccc(OC3O[C@H](CO)[C@@H](O)[C@H](O)[C@H]3O)cc2)cc(OC)c1 (stereo partly drawn) [pterostilbene monoglucoside]
fold induction at 50 µM (type IV collagen gene): ~1.35 | maximal fold induction (type IV collagen): ~2.5 | tyrosinase inhibitory effect relative to pterostilbene (comparison of IC50 values) [1]: ~5.5 times
